Data as given in patent US5043328A, “Formulations containing unsaturated fatty acids for the synthesis of prostaglandins and hydroxy-fatty acids in biological systems” (priority 1986, dated 1991).
Where two headings read alike, the source gives them in different places.

Tests used:
[1] = 1440 min
Procedure: Method 1: Investigation of the Stability of Unsaturated Fatty Acids in the Formulations
The stabilizing action of substances on polyunsaturated fatty acids was investigated as follows:
Test A for Water-Soluble Substances:
0.125 mg of unsaturated fatty acid or Na salt (see tables) (sodium arachidonate, from Sigma, Munich, Germany) is dissolved in 0.05 ml of water. 0.2 ml of aqueous solution which contains 2 mg of stabilizer and can additionally contain 2 mg of stimulator is mixed in (cf. Table 1), 0.1 ml is then taken out immediately, extracted and analysed (see below). Further processing according to modification 1 or 2.
Modification 1 for Aqueous Solutions
After 24 hours incubation at 37° C., 0.1 ml is again taken, extracted and analysed (see below).
Modification 2 for Solid Mixtures (Lyophilisates)
The test solution is lyophilized, the lyophilisate is incubated for 24 hours at 37° C. and then dissolved again in the previous quantity of water, and 0.1 ml is taken, extracted and analysed (see below).
Test B for Water-Insoluble Substances:
0.125 mg of unsaturated fatty acid (arachidonic acid, 5,8,11,14,17-eicosapentaenoic acid or 8,11,14-eicosatrienoic acid, from Sigma, Munich) is dissolved in 0.05 ml of ethanol or dimethyl sulfoxide. 0.2 ml of ethanol (or dimethyl sulfoxide) which contains 2 mg of stabilizer and can additionally contain 2 mg of the stimulator (cf. Table 1) is added thereto, and 0.1 ml is taken immediately and, as below, extracted and analysed. Further treatment according to modification 1 or 2.
Modification 1 for Solutions
After 24 hours' incubation at 37° C., 0.1 ml is again taken, mixed with 0.1 ml of water, extracted and analysed.
Modification 2 for Solid Mixtures
The remaining solution is freed of solvent, incubated for 24 hours at 37° C. and then dissolved again in 0.15 ml of solvent, and 0.1 ml is taken, mixed with 0.1 ml of water, extracted and analysed.
0.05 ml of 1.2M aqueous citric acid solution is added to the samples obtained, and the samples are extracted with twice 0.5 ml of ethyl acetate, the ethyl acetate is removed from the combined extracts and the residue is dissolved in 0.8 ml of methanol and analysed by means of high-pressure liquid chromatography (HPLC) (Rad Pak C-18 column, 100×8 mm, from Waters, Konigstein, Germany, 1.5 ml/minute, solvent 800 ml of methanol, 200 ml of water and 0.1 ml of glacial acetic acid). The separation is monitored with a commercially available UV detector at 206 nm.
The prostaglandins PGE2, PGF2 alpha and PGD2 as products from arachidonic acid where quantified by means of method 2, and the sum was related as "total prostaglandin" to 100%. The quantity of "total prostaglandin" formed without the addition of a stimulator was set at f=1; the quantity formed after stimulation was related thereto. f=2 or f=3 therefore means twice or three times the stimulation under the conditions of method 2. The stability of the sample was investigated by means of method 1 (right-hand column). […] Values greater than 25-28% therefore represent a stabilization, and values smaller than 25-28% represent a destabilization. Example No. 1 was carried out without a stimulator.

[2] = target: T1, enzyme (from seminal vesicles of sheep) (Ovis aries, UniProt P05979)
T1 sequence (P05979 25-600): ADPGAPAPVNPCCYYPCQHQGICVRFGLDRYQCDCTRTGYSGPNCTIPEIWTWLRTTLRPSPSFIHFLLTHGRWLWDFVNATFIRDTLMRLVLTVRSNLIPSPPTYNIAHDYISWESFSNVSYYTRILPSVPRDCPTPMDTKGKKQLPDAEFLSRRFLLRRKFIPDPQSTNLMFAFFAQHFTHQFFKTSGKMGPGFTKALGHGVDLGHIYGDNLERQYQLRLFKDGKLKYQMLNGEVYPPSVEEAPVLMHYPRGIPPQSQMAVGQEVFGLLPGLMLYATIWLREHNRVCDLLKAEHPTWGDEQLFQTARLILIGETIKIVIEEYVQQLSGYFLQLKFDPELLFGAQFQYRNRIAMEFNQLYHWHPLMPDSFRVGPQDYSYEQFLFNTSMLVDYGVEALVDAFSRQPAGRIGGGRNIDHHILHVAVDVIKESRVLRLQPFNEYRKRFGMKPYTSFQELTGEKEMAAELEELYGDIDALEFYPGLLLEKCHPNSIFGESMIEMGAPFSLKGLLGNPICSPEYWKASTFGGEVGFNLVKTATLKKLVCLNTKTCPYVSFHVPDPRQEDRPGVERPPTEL
Procedure: Method 2: Prostaglandin Synthesis
0.3 ml of 0.03M potassium phosphate buffer of pH=8.0 contains 0.5 mg of enzyme (from seminal vesicles of sheep) (Biochemistry 10 (1971) 2372) or homogenate of the inner kidney medulla (Life Sciences 26 (1980) 765), 2.75 μg of ^14 C-arachidonic acid (0.5 μCi) and 0.5 mg of stimulator, and, if appropriate, 0.5 mg of stabilizer substance (see Table 1). After 10 minutes' incubation at 37° C., the reaction is stopped with 0.05 ml of 1.2M citric acid and the mixture is extracted with twice 0.5 ml of ethyl acetate, the combined extracts are freed of solvent, and the residue is dissolved in 0.2 ml of methanol, diluted 1:1 with water and separated by HPLC (nucleosil C-18 column, 125×4.6 mm, from Bischoff, Leonberg, Germany, solvent 300 ml of acetonitrile, 700 ml of water and 1 ml of glacial acetic acid and after 30 minutes pure methanol). The separation of the radioactive fractions is followed by a monitor (LB 504 from Berthold, Wildbad, Germany). The products formed, such as 6-keto-prostaglandin F2alpha, prostaglandin E2, prostaglandin F2alpha and prostaglandin D2, are separated under these conditions.
The prostaglandins PGE2, PGF2 alpha and PGD2 as products from arachidonic acid where quantified by means of method 2, and the sum was related as "total prostaglandin" to 100%. The quantity of "total prostaglandin" formed without the addition of a stimulator was set at f=1; the quantity formed after stimulation was related thereto. f=2 or f=3 therefore means twice or three times the stimulation under the conditions of method 2. The stability of the sample was investigated by means of method 1 (right-hand column). […] Values greater than 25-28% therefore represent a stabilization, and values smaller than 25-28% represent a destabilization. Example No. 1 was carried out without a stimulator. […] The substances test with respect to stabilization (see Method 1 for quantities) were: A) aqueous solution without stabilizer addition, B) ethanolic solution without further addition, C) pyridine solution, D) with rutin, predissolved in dimethyl sulfoxide, dimethyl sulfoxide then stripped off, E) like B) with lecithin, ethanol stripped off, F) like A) with cytochrome c from horse heart (from Boehringer, Mannheim, Germany), G) like A) with methemoglobin (human) (from Sigman, Munich, Germany), H) like A) with bovine serum albumin (from Calbiochem, Frankfurt, Germany), J) like A) or B), but solvent stripped off, K) like J) with cytochrome c, L) like J) with hemoglobin (human) (from Behringwerke, Marburg, Germany), and M) like J) with human serum albumin (from Behringwerke, Marburg, Germany).

[3] = Storage of sodium arachidonate solution at room temperature for 6 weeks; assay type: physicochemical; details: water; solution without additions, after 6 weeks at room temperature; read-out: arachidonic acid content
Procedure: 50 mg of sodium arachidonate, 500 mg of bovine serum albumin and 500 mg of L-tyrosine are dissolved under sterile conditions in 10 ml of twice distilled water and, likewise under sterile conditions, stored in a brown bottle. 93.5% of the arachidonic acid originally present are recovered after 6 weeks' storage at room temperature, whereas the same sodium arachidonate solution without additions virtually no longer contain any arachidonic acid after this time (content <0.8). The stabilized solution prepared in this way

[4] = Table 2, share of total prostaglandin
[5] = seminal vesicle enzyme, 10 min, pH 8
[6] = Table 1, share of total prostaglandin (=100%)

| Molecule | Stabilization (% remaining unsaturated fatty acid by Method 1) [1] | PGD2 % [2, 4] | PGE2 % [2, 4] | PGF2alpha % [2, 4] | relative total prostaglandin f [2, 5] | remaining at 1008 h [3] | Stability (% remaining fatty acid by Method 1) [1] | relative total prostaglandin f ([2]; Table 1, 0.5 mg stimulator, 10 min 37° C., without stimulator f=1) | PGD2 % [2, 6] | PGE2 % [2, 6] | PGF2alpha % [2, 6] |
| --- | --- | --- | --- | --- | --- | --- | --- | --- | --- | --- | --- |
| C[C@@H]1O[C@@H](O[C@H]2[C@H](Oc3cc(O)c4c(c3)O[C@H](c3ccc(O)cc3)CC4=O)O[C@H](CO)[C@@H](O)[C@@H]2O)[C@H](O)[C@H](O)[C@H]1O [Example 54, Naringin] | 96% | 15% | 83% | 2% | 2 |  |  |  |  |  |  |
| O=C1C[C@@H](c2ccc(O)cc2)Oc2cc(O)cc(O)c21 [Example 55, Naringenin] | 96% | 20% | 80% | 0% | 1.5 |  |  |  |  |  |  |
| O=c1c(O)c(-c2ccc(O)cc2)oc2cc(O)cc(O)c12 [Example 56, Kaempferol] | 98% | 13% | 76% | 11% | 0.5 |  |  |  |  |  |  |
| Oc1cc(O)c2c(c1)O[C@H](c1ccc(O)c(O)c1)[C@H](O)C2 [Example 59, Epicatechin] | 89% | 12% | 71% | 17% |  |  |  |  |  |  |  |
| CCCCC/C=C\C/C=C\C/C=C\C/C=C\CCCC(=O)O [sodium arachidonate] |  |  |  |  |  | < 0.8% |  |  |  |  |  |
| TrpMetAspPhe [Example 28] |  |  |  |  |  |  | 97% | 11.8 | 20% | 73% | 7% |
